IC50 data for three compounds are collected here from BindingDB's records for doi:10.1021/jm9000242 (Bristol Myers Squibb, 2009).

Structures are written as SMILES.

This test deals with T1, Corticotropin-releasing factor receptor 1 (Rattus norvegicus, UniProt P35353).
T1 sequence (P35353 whole entry): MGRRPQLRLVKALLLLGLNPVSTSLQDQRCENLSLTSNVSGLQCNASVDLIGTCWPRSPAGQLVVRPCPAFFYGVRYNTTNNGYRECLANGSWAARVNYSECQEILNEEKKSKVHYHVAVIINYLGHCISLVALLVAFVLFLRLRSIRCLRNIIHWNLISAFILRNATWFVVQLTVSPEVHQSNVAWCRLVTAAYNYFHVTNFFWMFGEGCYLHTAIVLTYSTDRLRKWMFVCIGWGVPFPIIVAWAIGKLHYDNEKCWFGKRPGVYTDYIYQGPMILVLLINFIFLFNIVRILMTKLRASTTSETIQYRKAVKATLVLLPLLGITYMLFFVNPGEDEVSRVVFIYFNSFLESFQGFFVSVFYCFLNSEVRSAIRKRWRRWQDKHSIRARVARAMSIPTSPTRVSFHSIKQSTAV
The experiment in a line: In Vitro Binding Autoradiography. Here is the method:
Naive rats were sacrificed by decapitation, and the brain and pituitary were collected. Slide-mounted brain sections were preincubated in an assay solution containing [125I]oCRF for 2 h at room temperature. Concentration-related displacement of test compound was assessed by including the compound in the incubation solution. The adjacent sections were incubated under the same conditions in the presence of 1 uM alpha-helical CRF for defining nonspecific binding for CRF receptor. Nonspecific binding for CRF1 receptors was defined by 1 uM DMP696 or CP-154,526. After incubation, the sections were rinsed, dried, and then placed in cassettes against iodine-sensitive storage phosphor-imaging screens (PerkinElmer Life Sciences), and the screens were then digitally scanned with a Cyclone storage phosphor-imaging system (PerkinElmer Life Sciences). Captured storage phosphor images were analyzed with OptiQuant Acquisition and Analysis software (PerkinElmer Life Sciences).

In turn, `CCCCN(C)c1nc(C)nc2c(-c3c(C)cc(OC)cc3C)c(C)nn12` [Pyrazolo[1,5-a]-1,3,5-triazine, 12-32] returned an IC50 (25 °C) of 4.22 nM.

Consider `CC[C@@H](C)Nc1nc(C)nc2c(-c3c(C)cc(OC)cc3OC)c(C)nn12` [Pyrazolo[1,5-a]-1,3,5-triazine, 12-16], for which, where the note is “pH 7.2, 23 °C”, the IC50 is 5.7 nM.

Turning to `CCCN(CC1CC1)c1nc(C)nc2c(-c3c(C)cc(OC)cc3OC)c(C)nn12` [Pyrazolo[1,5-a]-1,3,5-triazine, 12-22], the IC50 (pH 7.2, 23 °C) came to 1.48 nM.
